Read-outs that look alike come from different tables or passages of the source.

The results in this text go back to patent publication US20240228491A1, “METHIONINE ADENOSYLTRANSFERASE INHIBITOR, PREPARATION METHOD THEREFOR AND APPLICATION THEREOF” (SCINNOHUB PHARMACEUTICAL CO., LTD., priority 2021, published 2024).

For one data set, the system named is HCT116 MTAP-/- cells. In words: Activity test of HCT116 MTAP gene homozygous deletion cells (CellTiter-Glo). It is filed as cell-based. The settings on record: Homo sapiens, HCT-116, 120 h incubation, read-out: HCT116 MTAP-/- Cell IC50. In a few lines:
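Cells seeded at 1000-3000/well in RPMI-1640 + 10% FBS, serum-starved 4 h, then treated with compound in complete medium for 120 h at 37 °C, 5% CO2. Viability read by CellTiter-Glo luminescence after 60 min; % inhibition versus untreated and cell-free wells, IC50 from dose-response fit.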
On the technique in general: ATP-based viability assays read luminescence as a measure of living cells.

For another data set, the system named is KP-4 cells. Put plainly: Inhibitory activity test of KP-4 cells. It counts as cell-based. Particulars: Homo sapiens, 144 h incubation, read-out: KP-4 cell inhibitory activity IC50. On the procedure:
On day 1, cell seeding: after digestion of the cells with trypsin, the cells were resuspended to 1*10^4/mL with RPMI1640 complete medium (HyClone Company, Cat. No. SH30809.01) supplemented with 10% FBS (Gibco, 10099141C), mixed evenly, and added into the 96-well plate at 100 μL/well. The plate was put back to the incubator for the adherent growth of cells. On day 2, the addition of the compounds to be tested: 100 μL of the complete medium containing the compounds (the concentration of the compound in the medium was formulated as follows: 3-fold gradient dilution from 60 μM, 10 concentration gradients in total) was added, incubated for 144 hours at 37° C., 5% CO2. On day 8, the cell culture plates were taken out from incubator and equilibrated to room temperature, excess medium was pipetted from the wells so that 50 μL of supernatant was retained, and 50 μL of CellCounting-Lite 2.0 (Nanjing Vazyme Biotech Co., Ltd., Cat. No. DD1101) reagent was added per well, and the cells were fully lysed by shaking at room temperature for 10 min, and incubated for 5 min to detect the fluorescence intensity.
% Inhibition=100−(signal of the well with the compound to be tested−signal of the well with only medium and free of cells)/(signal of the well with cells but without addition of the compound−signal of the well with only medium and free of cells)×100.
(§1) The log value of concentration was used as the X-axis and % Inhibition was used as the Y-axis, so as to fit the dose-effect curve and calculate the IC50 value using nonlinear regression (dose response−variable slope) in the analysis software GraphPad Prism 8.

Another data set deals with DOHH-2 cells. Put plainly: Inhibitory activity test of DOHH-2 cells. It is filed as cell-based. Particulars: Homo sapiens, 120 h incubation, CellTiter-Glo, read-out: DOHH-2 cell inhibitory activity IC50. On the procedure: On day 1, cell seeding: cells were resuspended to the desired density with DMEM complete medium (Gibico, Cat. No. 10569010) supplemented with 10% FBS (Gibco, 10099141C), mixed evenly, and added into the 384-well plate at 30 μL/well with a cell density of 800/well. The compounds to be tested were added as follows: 30 nL of DMSO solution containing the compound (the concentration of the compound in which was formulated as: 3-fold gradient dilution from 10 mM, 10 concentration points in total) was added, incubated for 120 h at 37° C., 5% CO2. On day 6, the cells treated with compounds were removed and equilibrated to room temperature, 30 μL of CellTiter-Glo (Promega company, Cat. No. G7573) reagent was added per well, and the cells were fully lysed by shaking at room temperature, and then incubated in dark at 37° C., 5% CO2 for 30 min, to detect the fluorescence intensity.
% Inhibition=100−(signal of the well with the compound to be tested−signal of the well with only medium and free of cells)/(signal of the well with cells but without the addition of the compound−signal of the well with only medium and free of cells)×100.
as §1

The nature of data set [1]: In vivo pharmacokinetic study in SD rats. Particulars: SD rat, plasma; for AUC(0-t): read-out: Area under curve AUC(0-t); for half-life: read-out: Half life T1/2 (converted); for Cmax: read-out: Maximal concentration Cmax. On the procedure: Species: SD rat. Source: Charles River Laboratory Animal Technology Co., Ltd. Number: 3 rats per dosage group.
1.1 An appropriate amount of the test sample was accurately weighed, into which 5% DMSO, 10% polyethylene glycol-15 hydroxystearate, 85% normal saline (all in volume percent) were added sequentially, and were fully mixed via vortex or ultrasound, to obtain the dosing solution with a test sample concentration of 0.2 mg/mL for intravenous administration.
1.2 An appropriate amount of the test sample was accurately weighed, into which 5% DMSO, 10% polyethylene glycol-15 hydroxystearate, 85% normal saline (all in volume percent) were added sequentially, and were fully mixed via vortex or ultrasound, to obtain the dosing solution with a test sample concentration of 0.5 mg/mL for oral gavage administration.
Weighing was performed before administration, and the administration amount was calculated according to the body weight. The drug was administered orally by gavage or intravenously.
On the day of the test, 100 μL of blood was collected via the jugular sinus at each set time point, and the whole blood samples were placed in anticoagulation tubes containing EDTA-K2. Whole blood samples were centrifuged at 1500 g for 10 min to separate the plasma, and the upper plasma samples were collected into sample tubes. Biological samples were stored at −40° C. to −20° C. for analysis.
According to the requirements of SOP-BA-002 (Liquid Mass Spectrometry for biological sample analysis) of Suzhou 3D BioOptima New Drug Development Co., Ltd., an LC-MS/MS analytical method was established to determine the concentrations of compounds in rat plasma, and used to determine the concentrations of compounds in the biological samples obtained in this experiment.
Pharmacokinetic parameters were calculated using the non-compartment model of Pharsight Phoenix 8.0.

The term AUC(0-t) denotes exposure summed from dosing to a finite time, without extrapolation to infinity. As usually defined, the bioavailability is the share of a dose that reaches the circulation, judged against a reference dose that is usually intravenous. Consider `Nc1c(-c2ccc3nccnc3c2)c(=O)n(-c2ccc(Cl)cc2)c2nc(C(F)(F)F)ccc12` [Example 36], for which the IC50 with HCT116 MTAP-/- cells is 7.43 nM. Moreover, the IC50 in the data set on KP-4 cells is 360 nM. Further, in the data set with DOHH-2 cells, the IC50 was determined as 7 nM. For the same molecule, in data set [1] (IV 1 mg/kg), the “Apparent clearance rate Cl” value is given as 0.745 mL/min/kg, the AUC(0-t) is 17600 ng·h/mL, the half-life was 5.8 h and the Cmax amounted to 2710 ng/mL. Moreover, in data set [1] (PO 5 mg/kg), the AUC(0-t) amounted to 67100 ng·h/mL, the half-life was 9.14 h and the Cmax worked out at 4140 ng/mL. Moreover, in data set [1] (PO 5 mg/kg vs IV 1 mg/kg, read-out: Bioavailability F %), the bioavailability worked out at 76.3%.
